# Results as given in US20250129054A1 (Terran Biosciences Inc., priority 2022, published 2025).
# Assays:
# [1] = Terminal plasma and brain concentration at the end of the zero maze study; assay type: in vivo, Sprague-Dawley rats; details: 5, 15 and 30 mg/kg ip, male SD rats
# Method: Terminal sampling. At the end of the study, terminal blood was collected from 2 of the vehicle treated rats (>5 mL) and from all methylone HCl treated rats (500 uL) by CP under CO2. Blood samples were placed into Eppendorf tubes on ice containing 22 μL/mL blood (vehicle treated) or 11 μL EDTA (93 mg/mL) (Methylone HCl treated rats) and gently mixed. After no longer than 30 min, blood samples were centrifuged at 10,000 rpm×3 min and plasma samples (>2 mL (vehicle) or 2×100 μL (Methylone HCl treated) placed into Eppendorf tubes (Vehicle) or 96 well plates on dry ice. Immediately after blood sampling, brains were excised, rinsed in saline, blotted, weighed and snap-frozen in liquid N2. All samples were stored at −20
# Terminal sampling. At the end of the study, terminal blood was collected from 2 of the vehicle treated rats (>5 mL) and from all S-methylone HCl treated rats (500 uL) by CP under CO2. Blood samples were placed into Eppendorf tubes on ice containing 22 μL/mL blood (vehicle treated) or 11 μL EDTA (93 mg/mL) (S-methylone HCl treated rats) and gently mixed. […]
# [2] = test system: post-traumatic stress disorder (PTSD); experiment: Double-blind, randomized, placebo-controlled clinical trial of methylone-assisted psychotherapy in PTSD; assay type: in vivo, human; details: at Study Conclusion
# Method: A multicenter, randomized, double-blind, placebo-controlled trial is conducted to assess the efficacy and safety of methylone-assisted psychotherapy versus psychotherapy with placebo control in participants diagnosed with at least moderate post-traumatic stress disorder (PTSD).
# This multicenter, randomized, double-blind, placebo-controlled trial is conducted at various sites in the United States with IRB approval from each study site. A flexible dose of methylone hydrochloride salt or placebo, followed by a supplemental half-dose unless contraindicated by patient's previous response or medical history, is also administered during the Treatment Period with psychotherapy in at least 3 blinded monthly Experimental Sessions. The Supplemental Dose extends the duration of drug effects on the participants during an Experimental Session. Methylone test groups are further subdivided into specific groups receiving only racemic methylone hydrochloride salt, S-methylone hydrochloride salt, or R-methylone hydrochloride salt. An optional Risk Evaluation and Mitigation Strategy (REMS) Protocol may be implemented for the racemic methylone, S-methylone, and placebo-groups. The Treatment Period lasts for approximately 12 weeks. During the Treatment Period, each Experimental Session is followed by three Intervening Sessions of non-drug psychotherapy. Each Experimental Session involves an overnight stay. The Primary Outcome measure, the change in Clinician Administered PTSD Scale for DSM-5 (CAPS-5), is determined by a blinded Independent Rater (IR) pool multiple times throughout the study. The study consists of separate periods for each participant. Initially, prospective participants undergo a Screening Period involving an initial eligibility assessment, a medical history intake, informed consent, and enrollment of eligible participants. Next, a Preparation Period is undertaken for enrolled participants involving medication tapering and clinical baseline assessments to confirm each participant meets enrollment criteria. As part of the Preparation Period, a detailed assessment of co-morbidities to PTSD is recorded. Participants may remain on prescribed courses of selective serotonin reuptake inhibitor (SSRI) or serotonin and norepinephrine reuptake inhibitor (SNRI) treatment. Dosages and/or frequency of administration of a prescribed SSRI or SNRI may be adjusted to fit within study parameters. Participants may be required to taper a prescribed course of medication in order to maintain eligibility within the study. The Treatment Period consists of three monthly Experimental Sessions and associated Intervening Sessions of integrative behavioral psychotherapy. The Treatment Period lasts approximately 12 weeks. Following the Treatment Period is a Follow-up Period and Study Conclusion. During the Follow-up Period and Study Conclusion, participants complete 4 weeks with no study visits, followed by a Study Conclusion visit.
# This study compares the effects of three blinded Experimental Sessions of psychotherapy in combination with flexible doses of methylone or placebo administered as described below. Non-drug preparatory and intervening psychotherapy sessions are also included. Patient's weight is determined for dosage calculation. Initial dose is 100 mg unless this will result in a dosage of less than 1.5 mg/kg of patient weight. Initial dose thereby adjusted upward in 25 mg increments to deliver the lowest dose possible of at least 1.5 mg/kg of patient weight. Initial dose for Experimental Session 2 and 3 is cumulative dose calculated by adding the initial dose plus REMS protocol dose used the previous Experimental Session for each patient.
# Randomization occurs prior to the initiation of Experimental Session 1. Each participant is provided the next randomized number in a sequence by a blinded study monitor. […]
# [3] = compared to placebo-treated controls
smiles,measurement,setting,value
CNC(C)C(=O)c1ccc2c(c1)OCO2 (racemic) [racemic methylone],concentration in plasma and brain at the end of the zero maze study,[1],increased in both brain and plasma at the higher doses
same,daytime sleepiness as measured by ESS,[2],significant improvement in lessening daytime sleepiness
same,clinician-rated functional impairment score as measured by SDS,[2]; [3],significant improvement
same,depression as measured by HAM-D,[2]; [3],significant improvement
same,change in CAPS-5 assessment,"[2]; with psychotherapy, compared to the placebo group, PTSD participants",significant mean reduction
